The target of one test is T1, ALK-wt (Homo sapiens, UniProt Q9UM73).
T1 construct: purchased Carna 08-518
Description: Biochemical kinase assay, ALK-wt kinase domain. The settings on record: apparent inhibitory constant, Morrison equation; ATP 2 mM in substrate solution; read-out: ALK-wt Ki^app. An outline of the steps:
(§1)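 Apparent Ki values come from fitting initial reaction rates against inhibitor concentration to the Morrison equation. Rates were taken from the linear phase of fluorogenic substrate phosphorylation (AQT0101 for ALK and ROS1, AQT0104 for TRKA; 26 μM in substrate solution with 2 mM ATP), monitored at 485 nm over 120 min at 30° C.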

A further test deals with T2, ALK L1196M/G1202R (Homo sapiens, UniProt Q9UM73, G1202R/L1196M).
T2 construct: purchased SignalChem A19-12NG
In words: Biochemical kinase assay, ALK L1196M/G1202R kinase domain. The settings on record: apparent inhibitory constant, Morrison equation; ATP 2 mM in substrate solution; read-out: ALK-L1196M-G1202R Ki^app. An outline of the steps: as §1

In another test the target is T3, ROS1-wt (Homo sapiens, UniProt P08922).
T3 construct: purchased Carna 08-163
Description: Biochemical kinase assay, ROS1-wt kinase domain. To be noted: apparent inhibitory constant, Morrison equation; ATP 2 mM in substrate solution; read-out: ROS1-wt Ki^app. An outline of the steps: (§2)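 Compounds, as 100-fold DMSO stocks, were dispensed first, then substrate mix was added (ATP 2 mM, AQT0101 26 μM, in 50 mM HEPES pH 7.5/10 mM MgCl2). Reactions ran at 30 °C with fluorescence logged every 2 min over 120 min. Apparent inhibition constants came from fitting rates to Morrison's tight-binding equation.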

The target in a further test is T4, ROS1-G2032R (Homo sapiens, UniProt P08922, G2032R).
T4 construct: purchased SignalChem R14-12BG
Description: Biochemical kinase assay, ROS1-G2032R kinase domain. The settings on record: apparent inhibitory constant, Morrison equation; ATP 2 mM in substrate solution; read-out: ROS1-G2032R Ki^app. An outline of the steps: as §2

The target in a further test is T5, TRKA-wt (Homo sapiens, UniProt P04629).
T5 construct: or TRKA-wt (1 nM, BPS Bio, 40280) kinase domains in buffer; purchased BPS Bio 40280
Description: Biochemical kinase assay, TRKA-wt kinase domain. The settings on record: apparent inhibitory constant, Morrison equation; ATP 2 mM in substrate solution; read-out: TRKA-wt Ki^app. An outline of the steps:
as §1

Test [1] concerns the target T6, Ba/F3 cells CD74-ROS1 wild-type (wt) (Homo sapiens, UniProt P08922).
T6 construct: fusion of the C-terminus of ROS1 with the N-terminus of various partner proteins; host or cells: Ba/F3 (RIKEN), retroviral pMSCV-puro; the other entry of the earlier key: CD74 (P04233, HLA class II histocompatibility antigen gamma chain)
In words: Ba/F3 cell proliferation assay, CD74-ROS1 wild-type. Type of test: cell-based. The settings on record: 72 hours, CellTiter-Glo. An outline of the steps:
(§3)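 IL-3-independent Ba/F3 CD74-ROS1 lines, puromycin-selected monoclones; 1,000 cells/well, plated 1 d before dosing; 3-fold serial dilutions, 72 h; CellTiter-Glo luminescence; IC50 by 4-parameter logistic regression.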
(In general: Cellular ATP, detected with luciferase, serves as a proxy for viable cell number.)

For test [2], the target named is T7, Ba/F3 cells CD74-ROS1 G2032R (Homo sapiens, UniProt P08922, G2032R).
T7 construct: fusion of the C-terminus of ROS1 with the N-terminus of various partner proteins; host or cells: Ba/F3 (RIKEN), retroviral pMSCV-puro; the other entry of the earlier key: CD74 (P04233, HLA class II histocompatibility antigen gamma chain)
In words: Ba/F3 cell proliferation assay, CD74-ROS1 G2032R. Type of test: cell-based. To be noted: 72 hours, CellTiter-Glo. An outline of the steps: as §3

Test [3] concerns the target T8, Ba/F3 cells EML4-ALK wt (variant 1) (Homo sapiens, UniProt Q9UM73).
T8 construct: echinoderm microtubule-associated protein-like 4 (EML4) gene and the ALK tyrosine kinase domain; host or cells: Ba/F3 (RIKEN), retroviral pMSCV-puro; the other entry of the earlier key: EML4 (Q9HC35, Echinoderm microtubule-associated protein-like 4)
Description: Ba/F3 cell proliferation assay, EML4-ALK wt (variant 1). Format: cell-based. To be noted: 72 hours, CellTiter-Glo. An outline of the steps:
(§4)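 Ba/F3 lines stably expressing the fusion (retroviral pMSCV-puro, selected by IL-3 withdrawal plus puromycin 0.8 μg/mL, monoclonal) were seeded at 1,000 cells/well, dosed next day with 3-fold compound dilutions, and incubated 72 hours. CellTiter-Glo luminescence gave percent inhibition; IC50 by four-parameter logistic fit.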

The target of test [4] is T9, Ba/F3 cells EML4-ALK L1196M/G1202R (variant 1) (Homo sapiens, UniProt Q9UM73, G1202R/L1196M).
T9 construct: echinoderm microtubule-associated protein-like 4 (EML4) gene and the ALK tyrosine kinase domain; host or cells: Ba/F3 (RIKEN), retroviral pMSCV-puro; the other entry of the earlier key: EML4 (Q9HC35, Echinoderm microtubule-associated protein-like 4)
Description: Ba/F3 cell proliferation assay, EML4-ALK L1196M/G1202R (variant 1). Format: cell-based. To be noted: 72 hours, CellTiter-Glo. An outline of the steps:
as §4

The next test concerns the target T10, Ba/F3 cells TPM3-TRKA (Homo sapiens, UniProt P04629).
T10 construct: host or cells: Ba/F3 (RIKEN), retroviral pMSCV-puro; the other entry of the earlier key: TPM3 (P06753, Tropomyosin alpha-3 chain)
In words: Ba/F3 cell proliferation assay, TPM3-TRKA. Type of test: cell-based. To be noted: 72 hours, CellTiter-Glo, read-out: TPM3-NTRK1-wt IC50. An outline of the steps: as §4

In test [5] the test system is TPM3-NTRK1-wt IC50 / primary target IC50 (e.g. CD74-ROS1-wt). Description: TRKA selectivity in Ba/F3 cells (TRKA potency divided by primary target potency). Type of test: cell-based. The settings on record: for TPM3-NTRK1-wt/CD74-ROS1-G2032R selectivity ratio: TRKA potency / CD74-ROS1-G2032R potency; for TPM3-NTRK1-wt/CD74-ROS1-wt selectivity ratio: TRKA potency / CD74-ROS1-wt potency; for TPM3-NTRK1-wt/EML4-ALK-L1196M-G1202R selectivity ratio: TRKA potency / EML4-ALK-L1196M-G1202R potency; for TPM3-NTRK1-wt/EML4-ALK-wt selectivity ratio: TRKA potency / EML4-ALK-wt potency. As to the method: TRKA selectivity was calculated by dividing a compound's TRKA potency by its primary target potency (e.g. TPM3-NTRK1-wt IC50/CD74-ROS1-wt IC50). Compound selectivity can be interpreted by binning ratio values: bin A for very high selectivity, ratio >30-fold; bin B for high selectivity, ratio >10-fold; bin C for moderate selectivity, ratio ≥1; and bin D for low selectivity, ratio <1. […] (nd=not determined).

T4 sequence (P08922 1945-2222 G2032R limits assumed): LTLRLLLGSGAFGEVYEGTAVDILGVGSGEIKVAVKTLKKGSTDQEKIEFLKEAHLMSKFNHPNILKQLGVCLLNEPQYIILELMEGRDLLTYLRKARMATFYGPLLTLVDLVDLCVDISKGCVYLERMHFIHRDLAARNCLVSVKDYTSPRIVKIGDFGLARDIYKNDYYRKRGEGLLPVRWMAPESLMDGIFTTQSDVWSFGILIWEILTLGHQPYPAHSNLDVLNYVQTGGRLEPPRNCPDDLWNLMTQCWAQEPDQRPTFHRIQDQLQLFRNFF
T9 sequence (Q9UM73 with tags, fused parts or gaps L1196M/G1202R): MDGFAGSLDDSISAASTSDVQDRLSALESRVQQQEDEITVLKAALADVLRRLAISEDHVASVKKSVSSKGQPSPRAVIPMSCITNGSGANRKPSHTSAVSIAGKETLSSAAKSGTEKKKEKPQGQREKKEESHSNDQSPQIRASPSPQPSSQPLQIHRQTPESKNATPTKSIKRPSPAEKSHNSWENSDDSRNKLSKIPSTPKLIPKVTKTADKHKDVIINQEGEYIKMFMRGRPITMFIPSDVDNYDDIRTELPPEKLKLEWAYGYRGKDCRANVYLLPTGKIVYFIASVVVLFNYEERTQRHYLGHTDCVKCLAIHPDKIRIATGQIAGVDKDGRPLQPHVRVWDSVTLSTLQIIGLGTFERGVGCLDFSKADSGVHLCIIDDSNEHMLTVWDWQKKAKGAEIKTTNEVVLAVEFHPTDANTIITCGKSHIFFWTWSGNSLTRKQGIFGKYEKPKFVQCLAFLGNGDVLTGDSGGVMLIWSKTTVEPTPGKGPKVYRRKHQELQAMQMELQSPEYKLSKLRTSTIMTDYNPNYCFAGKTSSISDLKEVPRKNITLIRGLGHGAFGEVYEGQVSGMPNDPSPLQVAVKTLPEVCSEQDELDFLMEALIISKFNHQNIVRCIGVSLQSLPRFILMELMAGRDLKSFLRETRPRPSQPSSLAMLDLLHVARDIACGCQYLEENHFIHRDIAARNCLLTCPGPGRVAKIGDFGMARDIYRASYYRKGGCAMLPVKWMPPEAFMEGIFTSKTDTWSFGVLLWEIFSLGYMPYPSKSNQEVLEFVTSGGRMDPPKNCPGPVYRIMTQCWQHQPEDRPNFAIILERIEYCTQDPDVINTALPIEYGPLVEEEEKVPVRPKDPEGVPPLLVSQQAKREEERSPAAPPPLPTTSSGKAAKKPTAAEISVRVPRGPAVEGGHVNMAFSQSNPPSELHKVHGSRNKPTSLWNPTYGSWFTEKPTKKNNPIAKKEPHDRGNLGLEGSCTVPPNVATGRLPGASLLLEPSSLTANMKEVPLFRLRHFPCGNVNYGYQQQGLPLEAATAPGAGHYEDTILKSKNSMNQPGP
T7 sequence (P08922 1883-2347 G2032R limits assumed): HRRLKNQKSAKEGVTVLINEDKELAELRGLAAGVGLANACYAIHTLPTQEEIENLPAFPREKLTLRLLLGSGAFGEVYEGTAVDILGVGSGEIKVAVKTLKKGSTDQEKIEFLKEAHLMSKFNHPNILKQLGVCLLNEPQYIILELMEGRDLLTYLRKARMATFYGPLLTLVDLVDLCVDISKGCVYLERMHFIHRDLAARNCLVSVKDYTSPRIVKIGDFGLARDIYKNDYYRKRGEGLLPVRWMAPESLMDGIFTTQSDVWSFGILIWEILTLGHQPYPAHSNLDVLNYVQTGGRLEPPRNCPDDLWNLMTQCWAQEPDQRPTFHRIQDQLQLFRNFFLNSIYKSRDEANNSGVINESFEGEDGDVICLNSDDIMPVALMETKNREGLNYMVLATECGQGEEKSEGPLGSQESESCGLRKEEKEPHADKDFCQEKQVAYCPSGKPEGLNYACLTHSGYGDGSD
T6 sequence (P08922 1883-2347 limits assumed): as the sequence (P08922 1883-2347 G2032R limits assumed) above, with R150G counted along it
T3 sequence (P08922 1945-2222 limits assumed): as the sequence (P08922 1945-2222 G2032R limits assumed) above, with R88G counted along it
T8 sequence (Q9UM73 with tags, fused parts or gaps): as the sequence (Q9UM73 with tags, fused parts or gaps L1196M/G1202R) above, with M635L, R641G counted along it
T2 sequence (Q9UM73 1116-1392 L1196M/G1202R limits assumed): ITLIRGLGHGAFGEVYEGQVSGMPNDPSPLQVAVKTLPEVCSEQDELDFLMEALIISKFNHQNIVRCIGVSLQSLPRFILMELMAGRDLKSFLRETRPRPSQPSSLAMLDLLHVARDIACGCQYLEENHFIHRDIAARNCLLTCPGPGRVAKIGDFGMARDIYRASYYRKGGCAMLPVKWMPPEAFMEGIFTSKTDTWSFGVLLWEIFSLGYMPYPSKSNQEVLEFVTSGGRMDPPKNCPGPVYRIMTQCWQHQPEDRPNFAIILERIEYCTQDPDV
T10 sequence (P04629 510-796 limits assumed): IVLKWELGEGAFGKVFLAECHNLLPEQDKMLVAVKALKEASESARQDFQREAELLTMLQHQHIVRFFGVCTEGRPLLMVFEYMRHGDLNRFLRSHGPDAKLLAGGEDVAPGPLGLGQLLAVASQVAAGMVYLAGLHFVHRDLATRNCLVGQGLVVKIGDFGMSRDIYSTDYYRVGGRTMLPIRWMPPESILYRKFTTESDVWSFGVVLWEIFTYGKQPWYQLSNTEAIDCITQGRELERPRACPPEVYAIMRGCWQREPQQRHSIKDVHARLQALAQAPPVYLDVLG
T5 sequence (P04629 510-781 limits assumed): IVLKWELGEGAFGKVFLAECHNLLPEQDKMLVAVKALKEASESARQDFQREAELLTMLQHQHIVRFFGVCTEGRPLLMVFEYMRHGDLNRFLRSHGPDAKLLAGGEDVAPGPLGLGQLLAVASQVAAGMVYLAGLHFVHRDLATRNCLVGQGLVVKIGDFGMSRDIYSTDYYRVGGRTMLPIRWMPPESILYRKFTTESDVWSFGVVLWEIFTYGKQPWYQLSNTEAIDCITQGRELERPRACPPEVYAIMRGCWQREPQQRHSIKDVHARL
T1 sequence (Q9UM73 1116-1392 limits assumed): as the sequence (Q9UM73 1116-1392 L1196M/G1202R limits assumed) above, with M81L, R87G counted along it

What is called IC50 is the concentration that inhibits the measured activity by half. With `C[C@H]1Oc2cc(cnc2N)-c2c(CC3CC3)noc2Cc2nn(C)nc2-c2ccc(F)cc21` [Example 63, (19R)-3-(cyclopropylmethyl)-16-fluoro-10,19-dimethyl-5,20-dioxa-4,9,1 0,11,23-pentaazapentacyclo [19.3.1.0^2,^6.0^8,^12.0^13,^18]pentacosa-1(24),2(6),3,8,11,13,15,17,21(25),22-decaen-22-amine], the Ki at ALK-wt was under 50 nM; on ALK L1196M/G1202R, under 50 nM; on ROS1-wt it was under 50 nM; at ROS1-G2032R, under 50 nM; on TRKA-wt, over 500 nM. Further, the IC50 lay in the range of 0.1 to 50 nM in [1]; 0.1 to 50 nM in test [2]; 0.1 to 50 nM in test [3]; 0.1 to 50 nM in test [4]; 50 to 500 nM on Ba/F3 cells TPM3-TRKA. Besides, the TPM3-NTRK1-wt/CD74-ROS1-G2032R selectivity ratio entry in test [5] was “A (bin A for very high selectivity, ratio >30-fold)”. In addition, the TPM3-NTRK1-wt/CD74-ROS1-wt selectivity ratio result in [5] is reported as “A (bin A for very high selectivity, ratio >30-fold)”. Moreover, the TPM3-NTRK1-wt/EML4-ALK-L1196M-G1202R selectivity ratio entry in test [5] is on record as “B (bin B for high selectivity, ratio >10-fold)”. Also, in [5], the TPM3-NTRK1-wt/EML4-ALK-wt selectivity ratio result was “A (bin A for very high selectivity, ratio >30-fold)”.
Take `Cc1nn(CC2CC2)c2c1Cn1ncnc1-c1ccc(F)cc1[C@@H](C)Oc1cc-2cnc1N` [Example 64, (19R)-3-(cyclopropylmethyl)-16-fluoro-5,19-dimethyl-20-oxa-3,4,8,9,11,23-hexaazapentacyclo[19.3.1.0^2,^6.0^8,^12.0^13,^18]pentacosa-1(24),2(6),4,9,11,13,15,17,21(25),22-decaen-22-amine]: the Ki on ALK-wt is under 50 nM; on ALK L1196M/G1202R, under 50 nM; on ROS1-wt, under 50 nM; on ROS1-G2032R it was under 50 nM; at TRKA-wt it was over 500 nM. Besides, the concentration for half-maximal inhibition (IC50) was 0.1 to 50 nM in [1]; 0.1 to 50 nM in test [2]; 0.1 to 50 nM in [3]; 50 to 500 nM in [4]; over 500 nM at Ba/F3 cells TPM3-TRKA. Further, the TPM3-NTRK1-wt/CD74-ROS1-G2032R selectivity ratio entry in [5] is listed as “A (bin A for very high selectivity, ratio >30-fold)”. In addition, in [5], the TPM3-NTRK1-wt/CD74-ROS1-wt selectivity ratio result is listed as “A (bin A for very high selectivity, ratio >30-fold)”. Further, the TPM3-NTRK1-wt/EML4-ALK-L1196M-G1202R selectivity ratio result in test [5] is “A (bin A for very high selectivity, ratio >30-fold)”. The TPM3-NTRK1-wt/EML4-ALK-wt selectivity ratio result in [5] is “A (bin A for very high selectivity, ratio >30-fold)”.
`Cc1nn(CC2CC2)c2c1Cc1nn(C)nc1-c1ccc(F)cc1[C@@H](C)Oc1cc-2cnc1N` [Example 65]: the Ki at ALK-wt is under 50 nM; at ALK L1196M/G1202R it was under 50 nM; at ROS1-wt it was under 50 nM; at ROS1-G2032R, under 50 nM; at TRKA-wt it was over 500 nM. Also, the IC50 in [1] is 0.1 to 50 nM; in test [2] it was 0.1 to 50 nM; in test [3], 0.1 to 50 nM; in test [4] it was 0.1 to 50 nM; at Ba/F3 cells TPM3-TRKA, over 500 nM. In addition, the TPM3-NTRK1-wt/CD74-ROS1-G2032R selectivity ratio entry in test [5] is “A (bin A for very high selectivity, ratio >30-fold)”. Besides, the TPM3-NTRK1-wt/CD74-ROS1-wt selectivity ratio entry in [5] is “A (bin A for very high selectivity, ratio >30-fold)”. In [5], the TPM3-NTRK1-wt/EML4-ALK-L1196M-G1202R selectivity ratio entry is reported as “A (bin A for very high selectivity, ratio >30-fold)”. In test [5], the TPM3-NTRK1-wt/EML4-ALK-wt selectivity ratio entry is reported as “A (bin A for very high selectivity, ratio >30-fold)”.
Consider `CCn1ncc2c1-c1cnc(N)c(c1)O[C@H](C)c1cc(F)ccc1-c1oc(C)nc1C2` [Example 66, (19R)-3-ethyl-16-fluoro-10,19-dimethyl-11,20-dioxa-3,4,9,23-tetraazapentacyclo[19.3.1,0^2,^6.0^8,^12.0^13,^18]pentacosa-1(24),2(6),4,8(12),9,13,15,17,21(25),22-decaen-22-amine], for which the Ki on ALK-wt is under 50 nM; at ALK L1196M/G1202R, under 50 nM; on ROS1-wt, under 50 nM; at ROS1-G2032R it was under 50 nM; at TRKA-wt, 50 to 500 nM. The IC50 fell in the range of 0.1 to 50 nM in test [1]; 0.1 to 50 nM in [2]; 0.1 to 50 nM in test [3]; 0.1 to 50 nM in test [4]; 50 to 500 nM at Ba/F3 cells TPM3-TRKA. Further, the TPM3-NTRK1-wt/CD74-ROS1-G2032R selectivity ratio entry in [5] is “A (bin A for very high selectivity, ratio >30-fold)”. Further, the TPM3-NTRK1-wt/CD74-ROS1-wt selectivity ratio result in test [5] is “A (bin A for very high selectivity, ratio >30-fold)”. Also, the TPM3-NTRK1-wt/EML4-ALK-L1196M-G1202R selectivity ratio result in test [5] is listed as “C (bin C for moderate selectivity, ratio ≥1)”. Besides, in [5], the TPM3-NTRK1-wt/EML4-ALK-wt selectivity ratio entry is “B (bin B for high selectivity, ratio >10-fold)”.
On to `C[C@H]1Oc2cc(cnc2N)-c2c(cnn2CC2CC2)Cc2nn(C)nc2-c2ccc(F)cc21` [Example 69, (19R)-3-(cyclopropylmethyl)-16-fluoro-10,19-dimethyl-20-oxa-3,4,9,10,11,23-hexaazapentacyclo[19.3.1.0^2,^6.0^8,^12.0^13,^18]pentacosa-1(24),2(6),4,8,11,13,15,17,21(25),22-decaen-22-amine], for which the Ki at ALK-wt was under 50 nM; on ALK L1196M/G1202R, under 50 nM; on ROS1-wt, under 50 nM; at ROS1-G2032R it was under 50 nM; on TRKA-wt it was over 500 nM. The half-inhibitory concentration (IC50) in test [1] was 0.1 to 50 nM; in [2], 0.1 to 50 nM; in test [3], 0.1 to 50 nM; in test [4] it was 0.1 to 50 nM; on Ba/F3 cells TPM3-TRKA, over 500 nM. Further, in test [5], the TPM3-NTRK1-wt/CD74-ROS1-G2032R selectivity ratio entry is “A (bin A for very high selectivity, ratio >30-fold)”. Besides, the TPM3-NTRK1-wt/CD74-ROS1-wt selectivity ratio result in [5] is on record as “A (bin A for very high selectivity, ratio >30-fold)”. Moreover, the TPM3-NTRK1-wt/EML4-ALK-L1196M-G1202R selectivity ratio result in [5] is “A (bin A for very high selectivity, ratio >30-fold)”. In test [5], the TPM3-NTRK1-wt/EML4-ALK-wt selectivity ratio entry is reported as “A (bin A for very high selectivity, ratio >30-fold)”.

These data come from patent US12054498B2, “Heteroaromatic macrocyclic ether chemotherapeutic agents” (Nuvalent, Inc., priority 2020, dated 2024).
